This note sets out measurements from US10519099B2, “Cystobactamides” (priority 2014, dated 2019).

Values after ≈ are worked out from the molar mass of the structure shown. Positions of bridges follow the written chain, without caps; N, C: chain ends. Non-standard residues stand in square brackets, D forms with d. Residues, ends and D or L forms follow the SMILES beside them. *: point of attachment. Ileψ(thiazoline)Cys = CC[C@H](C)[C@H](N)C1=N[C@H](C(=O)*)CS1; dOrn = NCCC[C@@H](N)C(=O)O

Broadly, the MIC is the lowest concentration found to suppress growth.

Assay [1] concerns Cystobacter velatus MCy8071. The experiment in a line: Antibiotic resistance of producer strain MCy8071. The assay is classed as cell-based. As to conditions: final concentration 50 μg ml^−1. How it is done: MCy8071 is resistant against the following antibiotics: ampicillin, gentamycin, hygromycin, polymycin, bacitracin, spectinomycin, neomycin, and fusidinic acid. Weak growth is possible with cephalosporin and kasugamycin and no growth is possible with thiostrepton, trimethoprin, kanamycin, and oxytetracycline (final concentration of all antibiotics was adjusted to 50 μg ml^−1).

For assay [2], the system named is Proteus vulgaris DSM-2140. The experiment in a line: MIC microdilution, P. vulgaris DSM-2140. The assay is classed as cell-based. Particulars: Proteus vulgaris, DSM2140; Gram-negative set; read-out: MIC P. vulgaris DSM-2140. How it is done:
(§1) Indicator strains used in susceptibility assays were either part of our strain collection or purchased from the German Collection of Microorgansims and Cell Cultures (DSMZ) or from the American Type Culture Collection (ATCC). E. coli strain WT and corresponding E. coli mutants were kindly provided by Prof. Dr. P. Heisig, Pharmaceutical Biology and Microbiology, University of Hamburg. E. coli strains JW0401-1 (WT) and Δtsx were obtained from the CGSC collection.
(§2) MIC values were determined in standardized microdilution assays. Overnight cultures were diluted in the appropriate growth medium to achieve an inoculum of 10^4-10^6 cfu/mL. Yeasts were grown in Myc medium (1% phytone peptone, 1% glucose, 50 mM HEPES, pH 7.0), S. pneumonia and Enterococcus spp. in tryptic soy broth (TSB: 1.7% peptone casein, 0.3% peptone soymeal, 0.25% glucose, 0.5% NaCl, 0.25% K2HPO4; pH 7.3); M. smegmatis in Middlebrook 7H9 medium supplemented with 10% Middlebrook ADC enrichment and 2 ml/I glycerol). All other listed bacteria were grown in Müller-Hinton broth (0.2% beef infusion solids, 1.75% casein hydrolysate, 0.15% starch, pH 7.4). Cystobactamides and reference drugs were added directly to the cultures in sterile 96-well plates as duplicates and serial dilutions were prepared. Microorganisms were grown on a microplate shaker (750 rpm, 30-37° C., 18-48 h), except S. pneumonia, which was grown at non-shaking conditions (37° C., 5% CO2, 18 h). Growth inhibition was assessed by visual inspection and the MIC was defined as the lowest concentration of compound that inhibited visible growth.
A general note: Broth dilution looks for growth in wells or tubes with falling amounts of substance.

Assay [3] deals with Acinetobacter baumannii DSM-30008. The experiment in a line: MIC microdilution, A. baumannii DSM-30008. As to conditions: Acinetobacter baumannii, DSM30008; Gram-negative set; read-out: MIC A. baumannii DSM-30008. It counts as cell-based. How it is done: as §1, §2
Assay [4] relates to E. coli DSM-1116. The experiment in a line: MIC microdilution, E. coli DSM-1116. It counts as cell-based, Escherichia coli. As to conditions: Escherichia coli, DSM1116; Gram-negative set; read-out: MIC E. coli DSM-1116. How it is done:
as §1, §2

Assay [5] concerns E. coli WT. The assay can be described thus: MIC microdilution, E. coli WT. It counts as cell-based, Escherichia coli. As to conditions: Escherichia coli; Gram-negative set; read-out: MIC E. coli WT. How it is done: as §1, §2
In assay [6] the test system is E. coli WT-3 [gyrA(S83L, D87G)]. The assay can be described thus: MIC microdilution, E. coli WT-3 [gyrA(S83L, D87G)]. It counts as cell-based, Escherichia coli. Particulars: Escherichia coli, read-out: MIC E. coli WT-3 [gyrA(S83L, D87G)]. How it is done:
as §1, §2

Assay [7] has as its system P. aeruginosa DSM-24600 (ESBL). The assay can be described thus: MIC microdilution, P. aeruginosa DSM-24600 (ESBL). It counts as cell-based, Pseudomonas aeruginosa. As to conditions: Pseudomonas aeruginosa, DSM24600; Gram-negative set; read-out: MIC P. aeruginosa DSM-24600 (ESBL). How it is done: as §1, §2
Assay [8] has as its system E. coli DSM-26863 (tolC3). The assay can be described thus: MIC microdilution, E. coli DSM-26863 (tolC3). It counts as cell-based, Escherichia coli. As to conditions: Escherichia coli, DSM26863, read-out: MIC E. coli DSM-26863 (tolC3). How it is done: as §1, §2
Assay [9] has as its system Citrobacter freundii DSM-30039. The experiment in a line: MIC microdilution, C. freundii DSM-30039. It counts as cell-based. As to conditions: Citrobacter freundii, DSM30039; Gram-negative set; read-out: MIC C. freundii DSM-30039. How it is done:
as §1, §2

Assay [10] has as its system E. coli WT-III [marRΔ74bp]. The experiment in a line: MIC microdilution, E. coli WT-III [marRΔ74bp]. The assay is classed as cell-based, Escherichia coli. As to conditions: Gram-negative set. How it is done: as §1, §2

Turning to `CC(=O)O[C@H]1C[C@@]2(C)[C@@H](C[C@@H](O)[C@H]3[C@@]4(C)CC[C@@H](O)[C@@H](C)[C@@H]4CC[C@@]32C)/C1=C(\CCC=C(C)C)C(=O)O` [fusidinic acid], the “growth of strain MCy8071 in presence of antibiotic” value (shortened to “growth of strain MCy8071”) in assay [1] was “resistant”.
Same read-out and setting: as for `CC1(C)S[C@@H]2[C@H](NC(=O)[C@H](N)c3ccccc3)C(=O)N2[C@H]1C(=O)O` [ampicillin], the entry is “resistant”.
On the same count and under the same terms, as for `CC[C@H](C)[C@H](N)C1=N[C@H](C(=O)N[C@@H](CC(C)C)C(=O)N[C@H](CCC(=O)O)C(=O)N[C@H](C(=O)N[C@H]2CCCCNC(=O)[C@H](CC(N)=O)NC(=O)[C@@H](CC(=O)O)NC(=O)[C@H](Cc3cnc[nH]3)NC(=O)[C@@H](Cc3ccccc3)NC(=O)[C@H]([C@@H](C)CC)NC(=O)[C@@H](CCCN)NC2=O)[C@@H](C)CC)CS1` [bacitracin] ({Ileψ(thiazoline)Cys}-L[dE]IK[dOrn]I[dF]H[dD]N; lactam 4-C), the entry is “resistant”; as for neomycin, “resistant”.
Consider `COC(C(N)=O)C(NC(=O)c1ccc(NC(=O)c2ccc([N+](=O)[O-])cc2)cc1)C(=O)Nc1ccc(C(=O)Nc2ccc(C(=O)Nc3ccc(C(=O)O)c(O)c3OC(C)C)c(O)c2OC(C)C)cc1` (stereo not shown) [Cys 935-2], for which the MIC in assay [2] was found to be 1 µg/mL (≈ 1.07 µM); in assay [3] it was 2 µg/mL (≈ 2.14 µM); in assay [4], 0.5 µg/mL (≈ 0.534 µM); in [5], 0.5 µg/mL (≈ 0.534 µM); in [6], 2 µg/mL (≈ 2.14 µM); in [7] it was 8 µg/mL (≈ 8.55 µM). Also, the MIC in assay [8] stood at 0.25 µg/mL (≈ 0.267 µM); in [9], 1 µg/mL (≈ 1.07 µM). Further, in assay [10], the “MIC E. coli WT-III [marRΔ74bp]” value was found to be 2 µg/mL (≈ 2.14 µM).
On to `COC(C(=O)O)C(NC(=O)c1ccc(NC(=O)c2ccc([N+](=O)[O-])cc2)cc1)C(=O)Nc1ccc(C(=O)Nc2ccc(C(=O)Nc3ccc(C(=O)O)cc3OC(C)C)c(O)c2OC(C)C)cc1` (stereo not shown) [Cys 920-1], for which the MIC in assay [2], in assay [3], in assay [4], in assay [5], in assay [6] and in assay [7] was above 64 µg/mL throughout. The MIC in [8] was 64 µg/mL (≈ 69.5 µM); in assay [9], above 64 µg/mL. The “MIC E. coli WT-III [marRΔ74bp]” value in [10] was above 64 µg/mL.
Take polymycin: the “growth of strain MCy8071” value in assay [1] was “resistant”.
Same read-out and setting: as for `C[C@H]1O[C@H](O[C@H]2[C@H](O)[C@@H](O)[C@@H](O)[C@H](O)[C@@H]2O)[C@@H](N)C[C@@H]1NC(=N)C(=O)O` [kasugamycin], the entry is “Weak growth”.
On the same count and under the same terms, as for gentamycin, the entry is “resistant”; as for `C=C(NC(=O)C(=C)NC(=O)c1csc(C2=N[C@@H]3c4csc(n4)[C@H]4NC(=O)c5csc(n5)[C@H]([C@](C)(O)[C@@H](C)O)NC(=O)[C@H]5CSC(=N5)/C(=C/C)NC(=O)[C@H]([C@@H](C)O)NC(=O)c5csc(n5)[C@]3(CC2)NC(=O)[C@H](C)NC(=O)C(=C)NC(=O)[C@H](C)NC(=O)[C@H]([C@@H](C)CC)N[C@@H]2C=Cc3c([C@H](C)O)cc(nc3[C@H]2O)C(=O)O[C@@H]4C)n1)C(N)=O` [thiostrepton], “no growth”.
Same read-out and setting: as for `COc1cc(Cc2cnc(N)nc2N)cc(OC)c1OC` [trimethoprin], the entry is “no growth”.
With `CCC(C)Oc1cc(C(=O)O)ccc1NC(=O)c1ccc(NC(=O)c2ccc(NC(=O)C(OC)C(NC(=O)c3ccc(NC(=O)c4ccc([N+](=O)[O-])cc4)cc3)C(=O)O)cc2)c(OC(C)C)c1O` (stereo not shown) [Cys 934-2], the MIC in assay [2], in [3], in assay [4], in assay [5], in [6] and in assay [7] was above 64 µg/mL throughout. Further, the minimum inhibitory concentration (MIC) is 32 µg/mL (≈ 34.2 µM) in [8] and above 64 µg/mL in assay [9]. Further, the “MIC E. coli WT-III [marRΔ74bp]” value in assay [10] was above 64 µg/mL.
Turning to `CCOc1cc(C(=O)O)ccc1NC(=O)c1ccc(NC(=O)c2ccc(NC(=O)C(NC(=O)c3ccc(NC(=O)c4ccc([N+](=O)[O-])cc4)cc3)C(OC)C(N)=O)cc2)c(OC(C)C)c1O` (stereo not shown) [Cys 905-2], the minimum inhibitory concentration (MIC) was 32 µg/mL (≈ 35.3 µM) in assay [2]; 64 µg/mL (≈ 70.7 µM) in [3]; 8 µg/mL (≈ 8.83 µM) in assay [4]; 4 µg/mL (≈ 4.42 µM) in [5]; above 64 µg/mL in assay [6]; above 64 µg/mL in assay [7]. For the same compound, the values for the MIC in assay [8] and in [9] were 2 µg/mL (≈ 2.21 µM) and 8 µg/mL (≈ 8.83 µM), respectively. The “MIC E. coli WT-III [marRΔ74bp]” value in assay [10] was above 64 µg/mL.
As for `CN[C@@H]1[C@H](O)[C@H](NC)[C@H]2O[C@@]3(O)C(=O)C[C@@H](C)O[C@H]3O[C@@H]2[C@H]1O` [spectinomycin], the “growth of strain MCy8071” value in assay [1] is on record as “resistant”.
